What follows are molecules tested against human S1P1 receptors (Homo sapiens (Human), UniProt P21453) (assay: Human S1P1 Receptor Calcium FLIPR Antagonist Assay (HeLa Gα16 S1P1)). Conditions: relative antagonism vs probing agonist GNF-AC-1 at EC80, HeLa-S1P1/Gα16 cells.
Type: cell-based
Source text: Human S1P1 Receptor Calcium FLIPR Antagonist Assay
The assay measures intracellular changes of Ca^2+ mediated by the synthetic probing agonist 3-{[2-(2-Trifluoromethyl-biphenyl-4-yl)-benzo[b]thiophen-5-ylmethyl]-amino}-propionic acid (GNF-AC-1) in the HeLa-S1P1/Gα16 cell clone 1: HeLa (human cervix carcinoma, ATCC CCL2) cells stably expressing N-terminally myc-tagged human S1P1 receptors (GenBank™ accession No. NM_001400; UNIPROT P21453) and promiscuous Gα16 protein (GenBank™ accession number M63904, Swissprot P30679) are cultured at 37° C., 5% CO2, and 95% relative humidity. The cells are plated in 384 well black plates (10′000 cells per well). After 24 hours the cells are loaded with Fluo-4-AM (1.6 μM in HBSS and 2.5 mM probenicid) for 1 hour at 37° C. After washing, the cells are transferred to the FLIPR. The test compounds are added at different concentrations (≦100 μM) in HBSS in the presence of 0.1% BSA and changes in fluorescence are recorded (indication of agonism). The probing agonist is added 20-30 minutes afterwards to the wells at a concentration giving 80% of the maximal activity (EC80). After each addition, time points are collected as follows: 20 time points (2 seconds) before the addition of the agonist (Fmin) and 60 time points (1 or 2 seconds) after the addition of the probing agonist. This allows the determination of the maximal fluorescence (Fmax). The ratio (Fmax−Fmin)/Fmin is plotted against the log of the concentration of the test compounds and the IC50 (relative antagonism) is calculated using the XLfit-4 software. […] A concentration-response curve of the probing agonist is determined on each plate in parallel.

Sequence of human S1P1 receptors (P21453 whole entry): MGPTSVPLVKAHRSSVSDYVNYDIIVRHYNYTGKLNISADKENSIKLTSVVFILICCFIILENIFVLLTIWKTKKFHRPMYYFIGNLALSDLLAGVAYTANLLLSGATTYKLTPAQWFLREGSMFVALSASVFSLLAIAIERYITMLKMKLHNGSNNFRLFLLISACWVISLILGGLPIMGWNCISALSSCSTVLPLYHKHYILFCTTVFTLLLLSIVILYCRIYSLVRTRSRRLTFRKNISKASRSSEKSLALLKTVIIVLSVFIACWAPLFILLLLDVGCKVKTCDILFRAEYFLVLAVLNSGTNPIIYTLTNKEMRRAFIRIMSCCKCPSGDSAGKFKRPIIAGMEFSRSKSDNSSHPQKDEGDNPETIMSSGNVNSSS

| IC50 | Structure (SMILES) |
| --- | --- |
| 1.5 nM | CCC(Nc1cccc(CN2CC[C@@H](C(=O)O)C2)c1C)c1ccc(Cl)c(C)c1 (stereo partly drawn) [Example 14, (R)-1-{3-[1-(4-Chloro-3-methyl-phenyl)-propylamino]-2-methyl-benzyl}-pyrrolidine-3-carboxylic acid] |
| 2.9 nM | Cc1cc([C@H](Nc2ccc(C)c(CN3CCC(C)(C(=O)O)C3)c2)C(F)(F)F)ccc1Cl (stereo partly drawn) [Example 83, 1-{5-[(S)-1-(4-Chloro-3-methyl-phenyl)-2,2,2-trifluoro-ethylamino]-2-methyl-benzyl}-3-methyl-pyrrolidine-3-carboxylic acid] |
| 1.5 nM | CC[C@@H](Nc1cccc(CN2CC(C)(C(=O)O)C2)c1)c1ccc(Cl)c(C)c1 [Example 8, 1-{3-[(R)-1-(4-Chloro-3-methyl-phenyl)-propylamino]-benzyl}-3-methyl-azetidine-3-carboxylic acid] |
| 0.8 nM | CC[C@@H](Nc1ccc(C)c(CN2CC(C(=O)O)C2)c1)c1ccc(Cl)c(C)c1 [Example 22, 1-{5-[(R)-1-(4-Chloro-3-methyl-phenyl)-propylamino]-2-methyl-benzyl}-azetidine-3-carboxylic acid] |
| 3.5 nM | CCC(Nc1cccc(CN2CC(C(=O)O)C2)c1)c1ccc(Cl)c(C)c1 (centres unmarked) [Example 2, 1-{3-[1-(4-Chloro-3-methyl-phenyl)-propylamino]-benzyl}-azetidine-3-carboxylic acid] |
| 0.4 nM | CCC(Nc1cc(C)cc(CN2CC(C(=O)O)C2)c1)c1ccc(Cl)c(C)c1 (centres unmarked) [Example 9, 1-{3-[1-(4-Chloro-3-methyl-phenyl)-propylamino]-5-methyl-benzyl}-azetidine-3-carboxylic acid] |
| 5.7 nM | Cc1cc([C@H](Nc2cccc(CN3CC(C(=O)O)C3)c2)C2CCC2)ccc1Cl [Example 76, 1-(3-{[(R)-(4-Chloro-3-methyl-phenyl)-cyclobutyl-methyl]-amino}-benzyl)-azetidine-3-carboxylic acid] |
| 0.6 nM | CC[C@@H](Nc1cc(CN2CC(C(=O)O)C2)c(Cl)cn1)c1ccc(Cl)c(C)c1 [Example 79, 1-{5-Chloro-2-[(R)-1-(4-chloro-3-methyl-phenyl)-propylamino]-pyridin-4-ylmethyl}-azetidine-3-carboxylic acid] |
| 0.8 nM | Cc1cc([C@H](Nc2cccc(CN3CC(C(=O)O)C3)c2C)C(F)(F)F)ccc1Cl [Example 39, 1-{3-[(S)-1-(4-Chloro-3-methyl-phenyl)-2,2,2-trifluoro-ethylamino]-2-methyl-benzyl}-azetidine-3-carboxylic acid] |
| 2.8 nM | CC[C@@H](Nc1cc(CN2CC(C(=O)O)C2)ccn1)c1ccc(Cl)c(C)c1 [Example 75, 1-{2-[(R)-1-(4-Chloro-3-methyl-phenyl)-propylamino]-pyridin-4-ylmethyl}-azetidine-3-carboxylic acid] |
| 1.1 nM | Cc1cc([C@H](Nc2ccc(Cl)c(CN3CCC(C(=O)O)C3)c2)C(F)(F)F)ccc1Cl (stereo partly drawn) [Example 72, 1-{2-Chloro-5-[(S)-1-(4-chloro-3-methyl-phenyl)-2,2,2-trifluoro-ethylamino]-benzyl}-pyrrolidine-3-carboxylic acid] |
| 0.2 nM | CCC(Nc1ccc(C)c(CN2CC(C(=O)O)C2)c1)c1ccc(Cl)c(C)c1 (centres unmarked) [Example 4, 1-{5-[1-(4-Chloro-3-methyl-phenyl)-propylamino]-2-methyl-benzyl}-azetidine-3-carboxylic acid] |
| 0.9 nM | CC[C@@H](Nc1cc(CN2CC(C(=O)O)C2)c(F)cn1)c1ccc(Cl)c(C)c1 [Example 54, 1-{2-[(R)-1-(4-Chloro-3-methyl-phenyl)-propylamino]-5-fluoro-pyridin-4-ylmethyl}-azetidine-3-carboxylic acid] |
| 10.6 nM | CC[C@@H](Nc1cc(CN2CC[C@@H](C(=O)O)C2)ccc1F)c1ccc(Cl)c(C)c1 [Example 27, (R)-1-{3-[(R)-1-(4-Chloro-3-methyl-phenyl)-propylamino]-4-fluoro-benzyl}-pyrrolidine-3-carboxylic acid] |
| 2.4 nM | CC[C@@H](Nc1cc(CN2CCC(C)(C(=O)O)C2)c(Cl)cn1)c1ccc(Cl)c(C)c1 (stereo partly drawn) [Example 57, 1-{5-Chloro-2-[(R)-1-(4-chloro-3-methyl-phenyl)-propylamino]-pyridin-4-ylmethyl}-3-methyl-pyrrolidine-3-carboxylic acid] |
| 1.1 nM | Cc1cc([C@H](Nc2ccc(Cl)c(CN3CC(C(=O)O)C3)c2)C(C)C)ccc1Cl [Example 63, 1-{2-Chloro-5-[(R)-1-(4-chloro-3-methyl-phenyl)-2-methyl-propylamino]-benzyl}-azetidine-3-carboxylic acid] |

| IC50 | Structure (SMILES) |
| --- | --- |
| 0.8 nM | CC[C@@H](Nc1ccc(Cl)c(CN2CC[C@@H](C(=O)O)C2)c1)c1ccc(Cl)c(C)c1 [Example 38, (R)-1-{2-Chloro-5-[(R)-1-(4-chloro-3-methyl-phenyl)-propylamino]-benzyl}-pyrrolidine-3-carboxylic acid] |
| 24.5 nM | CC[C@@H](Nc1ccc(C)c(CNCC(C)(C)C(=O)O)c1)c1cc(C)c(Cl)c(C)c1 [Example 80, 3-{5-[(R)-1-(4-Chloro-3,5-dimethyl-phenyl)-propylamino]-2-methyl-benzylamino}-2,2-dimethyl-propionic acid] |
| 0.9 nM | Cc1cc([C@H](Nc2ccc(Cl)c(CNCCC(=O)O)c2)C(F)(F)F)ccc1Cl [Example 52, 3-{2-Chloro-5-[(S)-1-(4-chloro-3-methyl-phenyl)-2,2,2-trifluoro-ethylamino]-benzylamino}-propionic acid] |
| 4 nM | CC[C@@H](Nc1cccc(CN2CC[C@@H](C(=O)O)C2)c1)c1ccc(Cl)c(C)c1 [Example 11] |
| 1.8 nM | CCc1ccc(N[C@@H](c2ccc(Cl)c(C)c2)C(F)(F)F)cc1CN1CC(C(=O)O)C1 [Example 35, 1-{5-[(S)-1-(4-Chloro-3-methyl-phenyl)-2,22-trifluoro-ethylamino]-2-ethyl-benzyl}-azetidine-3-carboxylic acid] |
| 2.3 nM | CCC(Nc1cc(C)cc(CN2CC[C@@H](C(=O)O)C2)c1)c1ccc(Cl)c(C)c1 (stereo partly drawn) [Example 15, (R)-1-{3-[1-(4-Chloro-3-methyl-phenyl)-propylamino]-5-methyl-benzyl}-pyrrolidine-3-carboxylic acid] |
| 2.1 nM | CC[C@@H](Nc1cc(CN2CC[C@@H](C(=O)O)C2)c(C)cn1)c1ccc(Cl)c(C)c1 [Example 60, (R)-1-{2-[(R)-1-(4-Chloro-3-methyl-phenyl)-propylamino]-5-methyl-pyridin-4-ylmethyl}-pyrrolidine-3-carboxylic acid] |
| 0.8 nM | CC[C@@H](Nc1ccc(C)c(CN2CC(C)(C(=O)O)C2)c1)c1ccc(Cl)c(C)c1 [Example 28, 1-{5-[(R)-1-(4-Chloro-3-methyl-phenyl)-propylamino]-2-methyl-benzyl}-3-methyl-azetidine-3-carboxylic acid] |
| 1.7 nM | Cc1cc([C@H](Nc2ccc(Cl)c(CN3CC(C(=O)O)C3)c2)C(C)C)cc(C)c1Cl [Example 64, 1-{2-Chloro-5-[(R)-1-(4-chloro-3,5-dimethyl-phenyl)-2-methyl-propylamino]-benzyl}-azetidine-3-carboxylic acid] |
| 0.7 nM | CC[C@@H](Nc1cc(CN2CCC(C)(C(=O)O)C2)c(Cl)cn1)c1ccc(Cl)c(C)c1 (single isomer, unassigned) [Example 87] |
| 14.7 nM | Cc1cc(C(C)Nc2cccc(CN3CC(C(=O)O)C3)c2)ccc1Cl (centres unmarked) [Example 1, 1-{3-[1-(4-Chloro-3-methyl-phenyl)-ethylamino]-benzyl}-azetidine-3-carboxylic acid] |
| 3.7 nM | CCc1ccc(N[C@H](CC)c2ccc(Cl)c(C)c2)cc1CN1CC[C@@H](C(=O)O)C1 [Example 36, (R)-1-{5-[(R)-1-(4-Chloro-3-methyl-phenyl)-propylamino]-2-ethyl-benzyl}-pyrrolidine-3-carboxylic acid] |
| 0.5 nM | CC[C@@H](Nc1cccc(C(C)N2CC(C(=O)O)C2)c1)c1ccc(Cl)c(C)c1 (stereo partly drawn) [Example 6, 1-(1-{3-[(R)-1-(4-Chloro-3-methyl-phenyl)-propylamino]-phenyl}-ethyl)-azetidine-3-carboxylic acid] |
| 3.9 nM | CC[C@@H](Nc1ccc(C)c(CNC[C@H](C)C(=O)O)c1)c1cc(C)c(Cl)c(C)c1 [Example 81, (S)-3-{5-[(R)-1-(4-Chloro-3,5-dimethyl-phenyl)-propylamino]-2-methyl-benzylamino}-2-methyl-propionic acid] |
| 3.3 nM | CC[C@@H](Nc1cccc(CN2CC[C@@H](C(=O)O)C2)c1F)c1ccc(Cl)c(C)c1 [Example 25, (R)-1-{3-[(R)-1-(4-Chloro-3-methyl-phenyl)-propylamino]-2-fluoro-benzyl}-pyrrolidine-3-carboxylic acid] |
| 0.4 nM | Cc1cc([C@H](Nc2ccc(C)c(CNCCC(=O)O)c2C)C(F)(F)F)ccc1Cl [Example 40, 3-{3-[(S)-1-(4-Chloro-3-methyl-phenyl)-2,2,2-trifluoro-ethylamino]-2,6-dimethyl-benzylamino}-propionic acid] |
